{
  "source": "patent US7407949B2",
  "about": "“Benzamide derivatives as oxytocin agonists and vasopressin antagonists” (priority 2003, dated 2008)",
  "origin": "cited, not measured here",
  "target": "T1, V1a vasopressin receptor (Homo sapiens, UniProt P37288)",
  "T1 construct": "host or cells: patients (in vivo clinical study)",
  "T1 sequence (P37288 whole entry)": "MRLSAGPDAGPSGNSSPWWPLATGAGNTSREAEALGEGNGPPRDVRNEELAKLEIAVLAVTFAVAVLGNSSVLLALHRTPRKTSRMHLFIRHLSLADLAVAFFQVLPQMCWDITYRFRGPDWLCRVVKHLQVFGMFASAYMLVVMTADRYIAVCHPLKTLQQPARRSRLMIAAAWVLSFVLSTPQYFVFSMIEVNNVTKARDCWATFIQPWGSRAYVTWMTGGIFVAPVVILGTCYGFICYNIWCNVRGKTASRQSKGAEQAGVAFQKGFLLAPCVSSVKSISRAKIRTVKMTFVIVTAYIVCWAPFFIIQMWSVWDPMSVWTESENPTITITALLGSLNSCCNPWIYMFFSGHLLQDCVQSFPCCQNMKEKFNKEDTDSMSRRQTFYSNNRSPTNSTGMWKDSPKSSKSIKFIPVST",
  "conditions": "dysmenorrhea patients, compared to placebo",
  "data": [
    {"smiles": "COc1ccc(S(=O)(=O)N2c3ccc(Cl)cc3[C@](O)(c3ccccc3Cl)[C@@H]2C(=O)N2CCC[C@H]2C(N)=O)cc1OC", "note": "[SR49059]", "values": [
      {"measurement": "amount of additional pain-killer taken", "result": "dose-related decrease in the amount of additional pain-killer taken"},
      {"measurement": "pain", "result": "dose-related decrease in pain"}
    ]}
  ]
}
